Experimental data as given in patent publication US9062284B2, “Uses and detection of herbicide resistance genes for resistance to aryloxyalkanoate herbicides” (Dow ArgoSciences LLC, priority 2007, dated 2015).

What was measured:
[1] = tested on: PAT/Cry1F-transformed Arabidopsis (auxin-sensitive control); experiment: Herbicide response of PAT/Cry1F transformed control Arabidopsis; type: in vivo, Arabidopsis thaliana; conditions: for % Injury 20-40% (individuals) / % Injury <20% (individuals) / % Injury >40% (individuals) / % Injury Ave: 14 DAT
From the text: (§1) T1 plants were then randomly assigned to various rates of 2,4-D. For Arabidopsis, 50 g ae/ha 2,4-D is an effective dose to distinguish sensitive plants from ones with meaningful levels of resistance. Elevated rates were also applied to determine relative levels of resistance (280, 560, 1120, or 2240 g ae/ha). Tables 11 and 12 show comparisons drawn to an aryloxyalkanoate herbicide resistance gene (AAD-12 (v1)) previously described in PCT/US2006/042133.
(§2) All auxin herbicide applications were made using the DeVilbiss sprayer as described above to apply 703 L/ha spray volume (0.4 ml solution/3-inch pot) or applied by track sprayer in a 187 L/ha spray volume. 2,4-D used was either technical grade (Sigma, St. Louis, Mo.) dissolved in DMSO and diluted in water (<1% DMSO final concentration) or the commercial dimethylamine salt formulation (456 g ae/L, NuFarm, St Joseph, Mo.). Dichlorprop used was commercial grade formulated as potassium salt of R-dichlorprop (600 g ai/L, AH Marks). As herbicide rates increased beyond 800 g ae/ha, the pH of the spray solution became exceedingly acidic, burning the leaves of young, tender Arabidopsis plants and complicating evaluation of the primary effects of the herbicides.
(§3) The first Arabidopsis transformations were conducted using AAD-13 (v1) (plant optimized gene). T1 transformants were first selected from the background of untransformed seed using a glufosinate selection scheme. Over 160,000 T1 seed were screened and 238 glufosinate resistant plants were identified (PAT gene), equating to a transformation/selection frequency of 0.15% which lies in the normal range of selection frequency of constructs where PAT+Liberty are used for selection. T1 plants selected above were subsequently transplanted to individual pots and sprayed with various rates of commercial aryloxyalkanoate herbicides. Table 11 compares the response of AAD-13 (v1) and control genes to impart 2,4-D resistance to Arabidopsis T1 transformants. Response is presented in terms of % visual injury 2 WAT. […] An arithmetic mean and standard deviation is presented for each treatment. The range in individual response is also indicated in the last column for each rate and transformation. PAT/Cry1F-transformed Arabidopsis served as an auxin-sensitive transformed control. The AAD-13 (v1) gene imparted herbicide resistance to individual T1 Arabidopsis plants. Within a given treatment, the level of plant response varied greatly and can be attributed to the fact each plant represents an independent transformation event. Of important note, at each 2,4-D rate tested, there were individuals that were unaffected while some were severely affected. […] At high rates the spray solution becomes highly acidic unless buffered therefore some of the injury may be attributed to the acidity of the spray solution. Arabidopsis grown mostly in the growth chamber has a very thin cuticle and severe burning effects can complicate testing at these elevated rates. Nonetheless, many individuals have survived 2,240 g ae/ha 2,4-D with little or no injury.
(§4) The ability of AAD-13 (v1) to provide resistance to other aryloxyalkanoate auxin herbicides in transgenic Arabidopsis was determined by foliar application of various substrates. T2 generation Arabidopsis seed was stratified, and sown into selection trays much like that of Arabidopsis (Example 6.4). A transformed-control line containing PAT and the insect resistance gene Cry1F was planted in a similar manner. Seedlings were transferred to individual 3-inch pots in the greenhouse. All plants were sprayed with the use of a track sprayer set at 187 L/ha. The plants were sprayed with a range of pyridyloxyacetate herbicides: 200-800 g ae/ha triclopyr (Garlon 3A, Dow AgroSciences) and 200-800 g ae/ha fluoroxypyr (Starane, Dow AgroSciences). […]

[2] = tested on: Homozygous AAD-12 (v1) gene T4 Arabidopsis plants; experiment: Herbicide response of homozygous AAD-12 (v1) T4 Arabidopsis; type: in vivo, Arabidopsis thaliana; conditions: for % Injury 20-40% (individuals) / % Injury <20% (individuals) / % Injury >40% (individuals) / % Injury Ave: 14 DAT
From the text: as §1, §2, §3, §4

[3] = tested on: KY160 untransformed tobacco; experiment: Herbicide response of untransformed KY160 tobacco; type: in vivo, Nicotiana tabacum; conditions: for plant response to foliar applied auxinic herbicides (injury): 14 days after application; for % Injury 20-40% (individuals) / % Injury <20% (individuals) / % Injury >40% (individuals) / % Injury Ave: 2 WAT
From the text: Surviving T1 plants were then randomly assigned to various rates of 2,4-D. For tobacco, 140 g ae/ha 2,4-D is an effective dose to distinguish sensitive plants from ones with meaningful levels of resistance. Elevated rates were also applied to determine relative levels of resistance (140, 560, or 2240 g ae/ha).
All auxin herbicide applications were applied by track sprayer in a 187 L/ha spray volume. 2,4-D used was the commercial dimethylamine salt formulation (456 g ae/L, NuFarm, St Joseph, Mo.). Some T1 individuals were subjected to alternative commercial herbicides instead of a phenoxy auxin. One point of interest was determining whether the pyridyloxyacetate auxin herbicides, triclopyr and fluoroxypyr, could be effectively degraded in planta. Herbicides were applied to T1 plants with use of a track sprayer in a 187 L/ha spray volume.
T1 transformants were first selected from the background of untransformed plants using a 2,4-D selection scheme. Table 15 compares the response of AAD-13 (v1) and control genes to impart 2,4-D resistance to tobacco T1 transformants. Response is presented in terms of % visual injury 2 WAT. […] An arithmetic mean and standard deviation is presented for each treatment. The range in individual response is also indicated in the last column for each rate and transformation. KY160 untransformed tobacco served as an auxin-sensitive control. The AAD-13 (v1) gene imparted herbicide resistance to individual T1 tobacco plants.
The ability of AAD-13 (v1) to provide resistance to other aryloxyalkanoate auxin herbicides in transgenic tobacco was determined by foliar application of various substrates. Extra T1 generation plants following the T1 progeny testing were sprayed with the use of a track sprayer set at 187 L/ha. The plants were sprayed with a range of pyridyloxyacetate herbicides: 140-1120 g ae/ha triclopyr (Garlon 3A, Dow AgroSciences) and 280-1120 g ae/ha fluoroxypyr (Starane, Dow AgroSciences). All applications were formulated in water. Each treatment was replicated 3 times. Plants were evaluated at 3 and 14 days after treatment.

O=C(O)COc1nc(Cl)c(Cl)cc1Cl [triclopyr]
Ave. % Injury 14DAT ([1]; 200 g ae/ha foliar-applied): 100% | Ave. % Injury 14DAT ([1]; 400 g ae/ha foliar-applied): 100% | Ave. % Injury 14DAT ([1]; 800 g ae/ha foliar-applied): 100% | Ave. % Injury 14DAT ([2]; 200 g ae/ha foliar-applied): 25% | Ave. % Injury 14DAT ([2]; 400 g ae/ha foliar-applied): 33% | Ave. % Injury 14DAT ([2]; 800 g ae/ha foliar-applied): 79% | plant response to foliar applied auxinic herbicides (injury) ([3]; 280 g ae/ha): 82.0 | plant response to foliar applied auxinic herbicides (injury) ([3]; 560 g ae/ha): 88.0 | plant response to foliar applied auxinic herbicides (injury) ([3]; 1120 g ae/ha): 92.0

C[C@@H](Oc1ccc(Cl)cc1Cl)C(=O)O [R-dichloroprop, R-dichlorprop]
% Injury 20-40% (individuals) ([2]; 800 g ae/ha postemergence): 0 | % Injury <20% (individuals) ([2]; 800 g ae/ha postemergence): 0 | % Injury >40% (individuals) ([2]; 800 g ae/ha postemergence): 20 | % Injury Ave ([2]; 800 g ae/ha postemergence): 100%

CNC.O=C(O)COc1ccc(Cl)cc1Cl [2,4-D DMA]
% Injury 20-40% (individuals) ([1]; 280 g ae/ha postemergence): 0 | % Injury <20% (individuals) ([1]; 280 g ae/ha postemergence): 0 | % Injury >40% (individuals) ([1]; 280 g ae/ha postemergence): 20 | % Injury Ave ([1]; 280 g ae/ha postemergence): 100% | % Injury 20-40% (individuals) ([1]; 560 g ae/ha postemergence): 0 | % Injury <20% (individuals) ([1]; 560 g ae/ha postemergence): 0 | % Injury >40% (individuals) ([1]; 560 g ae/ha postemergence): 20 | % Injury Ave ([1]; 560 g ae/ha postemergence): 100% | % Injury 20-40% (individuals) ([1]; 1120 g ae/ha postemergence): 0 | % Injury <20% (individuals) ([1]; 1120 g ae/ha postemergence): 0 | % Injury >40% (individuals) ([1]; 1120 g ae/ha postemergence): 20 | % Injury Ave ([1]; 1120 g ae/ha postemergence): 100% | % Injury 20-40% (individuals) ([1]; 2240 g ae/ha postemergence): 0 | % Injury <20% (individuals) ([1]; 2240 g ae/ha postemergence): 0 | % Injury >40% (individuals) ([1]; 2240 g ae/ha postemergence): 20 | % Injury Ave ([1]; 2240 g ae/ha postemergence): 100% | % Injury 20-40% (individuals) ([2]; 280 g ae/ha postemergence): 0 | % Injury <20% (individuals) ([2]; 280 g ae/ha postemergence): 20 | % Injury >40% (individuals) ([2]; 280 g ae/ha postemergence): 0 | % Injury Ave ([2]; 280 g ae/ha postemergence): 0% | % Injury 20-40% (individuals) ([2]; 560 g ae/ha postemergence): 0 | % Injury <20% (individuals) ([2]; 560 g ae/ha postemergence): 20 | % Injury >40% (individuals) ([2]; 560 g ae/ha postemergence): 0 | % Injury Ave ([2]; 560 g ae/ha postemergence): 1% | % Injury 20-40% (individuals) ([2]; 1120 g ae/ha postemergence): 0 | % Injury <20% (individuals) ([2]; 1120 g ae/ha postemergence): 20 | % Injury >40% (individuals) ([2]; 1120 g ae/ha postemergence): 0 | % Injury Ave ([2]; 1120 g ae/ha postemergence): 2% | % Injury 20-40% (individuals) ([2]; 2240 g ae/ha postemergence): 3 | % Injury <20% (individuals) ([2]; 2240 g ae/ha postemergence): 16 | % Injury >40% (individuals) ([2]; 2240 g ae/ha postemergence): 1 | % Injury Ave ([2]; 2240 g ae/ha postemergence): 13% | % Injury 20-40% (individuals) ([3]; 140 g ae/ha postemergence): 0 | % Injury <20% (individuals) ([3]; 140 g ae/ha postemergence): 0 | % Injury >40% (individuals) ([3]; 140 g ae/ha postemergence): 3 | % Injury Ave ([3]; 140 g ae/ha postemergence): 80.0% | % Injury 20-40% (individuals) ([3]; 560 g ae/ha postemergence): 0 | % Injury <20% (individuals) ([3]; 560 g ae/ha postemergence): 0 | % Injury >40% (individuals) ([3]; 560 g ae/ha postemergence): 3 | % Injury Ave ([3]; 560 g ae/ha postemergence): 88.0% | % Injury 20-40% (individuals) ([3]; 2240 g ae/ha postemergence): 0 | % Injury <20% (individuals) ([3]; 2240 g ae/ha postemergence): 0 | % Injury >40% (individuals) ([3]; 2240 g ae/ha postemergence): 3 | % Injury Ave ([3]; 2240 g ae/ha postemergence): 92.0%

Nc1c(Cl)c(F)nc(OCC(=O)O)c1Cl [fluoroxypyr]
Ave. % Injury 14DAT ([1]; 200 g ae/ha foliar-applied): 100% | Ave. % Injury 14DAT ([1]; 400 g ae/ha foliar-applied): 100% | Ave. % Injury 14DAT ([1]; 800 g ae/ha foliar-applied): 100% | Ave. % Injury 14DAT ([2]; 200 g ae/ha foliar-applied): 48% | Ave. % Injury 14DAT ([2]; 400 g ae/ha foliar-applied): 55% | Ave. % Injury 14DAT ([2]; 800 g ae/ha foliar-applied): 60% | plant response to foliar applied auxinic herbicides (injury) ([3]; 280 g ae/ha): 100.0 | plant response to foliar applied auxinic herbicides (injury) ([3]; 560 g ae/ha): 100.0 | plant response to foliar applied auxinic herbicides (injury) ([3]; 1120 g ae/ha): 100.0
